What was measured:
Assay in all cases: KINOMEscan competition binding
Settings in all cases: compound 10.0 µM
MAP4K1 (human) = MAP4K1 (human) (UniProt Q92918)
NEK2 (human) = NEK2 (human) (UniProt P51955)
PAK4 (human) = PAK4 (human) (UniProt O96013)
CDK18 (human) = CDK18 (human) (UniProt Q07002)
RAF1 (human) = RAF1 (human) (UniProt P04049)
STK11 (human) = STK11 (human) (UniProt Q15831)
STK32C (human) = STK32C (human) (UniProt Q86UX6)
[1] = system: FLT3 (human), P36888 [ITD]
FYN (human) = FYN (human) (UniProt P06241)
DYRK1B (human) = DYRK1B (human) (UniProt Q9Y463)
AAK1 (human) = AAK1 (human) (UniProt Q2M2I8)
TTK (human) = TTK (human) (UniProt P33981)
MKNK1 (human) = MKNK1 (human) (UniProt Q9BUB5)
MAPK14 (human) = MAPK14 (human) (UniProt Q16539)
MAPK14 (human), sequence (Q16539 whole entry, looked up): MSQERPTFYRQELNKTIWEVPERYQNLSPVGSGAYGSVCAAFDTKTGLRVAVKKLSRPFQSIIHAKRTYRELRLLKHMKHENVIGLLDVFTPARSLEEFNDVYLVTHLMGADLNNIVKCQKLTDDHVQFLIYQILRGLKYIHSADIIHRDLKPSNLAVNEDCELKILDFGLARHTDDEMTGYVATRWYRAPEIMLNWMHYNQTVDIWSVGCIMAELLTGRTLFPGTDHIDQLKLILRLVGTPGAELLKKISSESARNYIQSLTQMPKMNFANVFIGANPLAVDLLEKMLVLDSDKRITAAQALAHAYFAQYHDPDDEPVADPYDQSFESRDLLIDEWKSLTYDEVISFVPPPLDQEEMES

PIM2 (human) = PIM2 (human) (UniProt Q9P1W9)
WEE1 (human) = WEE1 (human) (UniProt P30291)
RPS6KA5 KD1 (human) = RPS6KA5 KD1 (human) (UniProt O75582)
NTRK2 (human) = NTRK2 (human) (UniProt Q16620)
IKBKB (human) = IKBKB (human) (UniProt O14920)
IKBKB (human), sequence (O14920 whole entry, looked up): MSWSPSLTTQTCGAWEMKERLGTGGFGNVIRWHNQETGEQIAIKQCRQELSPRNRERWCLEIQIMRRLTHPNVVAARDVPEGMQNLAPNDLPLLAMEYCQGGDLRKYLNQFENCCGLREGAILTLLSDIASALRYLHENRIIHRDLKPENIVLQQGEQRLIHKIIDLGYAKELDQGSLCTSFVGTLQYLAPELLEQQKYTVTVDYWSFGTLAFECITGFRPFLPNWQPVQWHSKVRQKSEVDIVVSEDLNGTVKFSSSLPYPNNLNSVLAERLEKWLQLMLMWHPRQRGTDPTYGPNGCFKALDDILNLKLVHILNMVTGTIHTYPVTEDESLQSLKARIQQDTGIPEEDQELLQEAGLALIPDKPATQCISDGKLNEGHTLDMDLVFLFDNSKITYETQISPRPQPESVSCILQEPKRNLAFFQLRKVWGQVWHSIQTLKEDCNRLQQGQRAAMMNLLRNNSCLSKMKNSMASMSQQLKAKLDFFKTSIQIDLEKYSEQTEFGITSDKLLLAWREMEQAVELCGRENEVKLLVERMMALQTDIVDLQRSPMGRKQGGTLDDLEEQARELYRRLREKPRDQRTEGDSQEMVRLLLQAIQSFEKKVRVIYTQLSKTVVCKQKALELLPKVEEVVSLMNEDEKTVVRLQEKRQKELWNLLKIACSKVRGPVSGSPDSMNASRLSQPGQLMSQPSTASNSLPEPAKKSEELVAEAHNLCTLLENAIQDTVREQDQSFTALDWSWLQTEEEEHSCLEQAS

MAPK3 (human) = MAPK3 (human) (UniProt P27361)
MAP2K4 (human) = MAP2K4 (human) (UniProt P45985)
CDK8 (human) = CDK8 (human) (UniProt P49336)
CDK8 (human), sequence (P49336 whole entry, looked up): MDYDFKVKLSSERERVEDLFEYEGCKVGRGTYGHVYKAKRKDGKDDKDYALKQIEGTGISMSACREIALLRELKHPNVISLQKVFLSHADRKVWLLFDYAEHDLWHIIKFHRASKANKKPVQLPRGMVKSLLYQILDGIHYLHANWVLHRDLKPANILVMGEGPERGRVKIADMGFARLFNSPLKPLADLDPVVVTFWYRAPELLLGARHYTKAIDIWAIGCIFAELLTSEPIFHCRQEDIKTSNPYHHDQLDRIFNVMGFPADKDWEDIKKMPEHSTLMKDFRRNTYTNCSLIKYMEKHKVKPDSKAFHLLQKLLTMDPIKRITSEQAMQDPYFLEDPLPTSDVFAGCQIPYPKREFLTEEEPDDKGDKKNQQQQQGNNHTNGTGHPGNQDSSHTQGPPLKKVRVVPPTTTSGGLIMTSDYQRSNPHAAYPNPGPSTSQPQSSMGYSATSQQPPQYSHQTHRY

CDC42BPA (human) = CDC42BPA (human) (UniProt Q5VT25)
CAMK2D (human) = CAMK2D (human) (UniProt Q13557)
CAMK2D (human), sequence (Q13557 whole entry, looked up): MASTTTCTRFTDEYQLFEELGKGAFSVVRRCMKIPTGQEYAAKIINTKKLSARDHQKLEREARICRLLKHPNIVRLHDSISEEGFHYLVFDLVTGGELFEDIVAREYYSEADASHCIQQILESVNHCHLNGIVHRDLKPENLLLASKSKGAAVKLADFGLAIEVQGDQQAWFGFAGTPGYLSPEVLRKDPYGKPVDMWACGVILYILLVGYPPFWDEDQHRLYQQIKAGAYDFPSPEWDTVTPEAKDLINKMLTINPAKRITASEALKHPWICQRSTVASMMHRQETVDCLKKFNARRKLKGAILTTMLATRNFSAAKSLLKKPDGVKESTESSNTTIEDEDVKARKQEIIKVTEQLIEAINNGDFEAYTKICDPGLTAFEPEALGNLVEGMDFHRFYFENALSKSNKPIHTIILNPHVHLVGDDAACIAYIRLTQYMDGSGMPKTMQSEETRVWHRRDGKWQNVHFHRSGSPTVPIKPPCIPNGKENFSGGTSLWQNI

RPS6KA4 KD2 (human) = RPS6KA4 KD2 (human) (UniProt O75676)
STK36 (human) = STK36 (human) (UniProt Q9NRP7)
MAPK13 (human) = MAPK13 (human) (UniProt O15264)
MARK4 (human) = MARK4 (human) (UniProt Q96L34)
MARK1 (human) = MARK1 (human) (UniProt Q9P0L2)
CAMK2A (human) = CAMK2A (human) (UniProt Q9UQM7)
MAP4K3 (human) = MAP4K3 (human) (UniProt Q8IVH8)
TLK1 (human) = TLK1 (human) (UniProt Q9UKI8)
GSK3B (human) = GSK3B (human) (UniProt P49841)
EPHB1 (human) = EPHB1 (human) (UniProt P54762)
EPHB1 (human), sequence (P54762 whole entry, looked up): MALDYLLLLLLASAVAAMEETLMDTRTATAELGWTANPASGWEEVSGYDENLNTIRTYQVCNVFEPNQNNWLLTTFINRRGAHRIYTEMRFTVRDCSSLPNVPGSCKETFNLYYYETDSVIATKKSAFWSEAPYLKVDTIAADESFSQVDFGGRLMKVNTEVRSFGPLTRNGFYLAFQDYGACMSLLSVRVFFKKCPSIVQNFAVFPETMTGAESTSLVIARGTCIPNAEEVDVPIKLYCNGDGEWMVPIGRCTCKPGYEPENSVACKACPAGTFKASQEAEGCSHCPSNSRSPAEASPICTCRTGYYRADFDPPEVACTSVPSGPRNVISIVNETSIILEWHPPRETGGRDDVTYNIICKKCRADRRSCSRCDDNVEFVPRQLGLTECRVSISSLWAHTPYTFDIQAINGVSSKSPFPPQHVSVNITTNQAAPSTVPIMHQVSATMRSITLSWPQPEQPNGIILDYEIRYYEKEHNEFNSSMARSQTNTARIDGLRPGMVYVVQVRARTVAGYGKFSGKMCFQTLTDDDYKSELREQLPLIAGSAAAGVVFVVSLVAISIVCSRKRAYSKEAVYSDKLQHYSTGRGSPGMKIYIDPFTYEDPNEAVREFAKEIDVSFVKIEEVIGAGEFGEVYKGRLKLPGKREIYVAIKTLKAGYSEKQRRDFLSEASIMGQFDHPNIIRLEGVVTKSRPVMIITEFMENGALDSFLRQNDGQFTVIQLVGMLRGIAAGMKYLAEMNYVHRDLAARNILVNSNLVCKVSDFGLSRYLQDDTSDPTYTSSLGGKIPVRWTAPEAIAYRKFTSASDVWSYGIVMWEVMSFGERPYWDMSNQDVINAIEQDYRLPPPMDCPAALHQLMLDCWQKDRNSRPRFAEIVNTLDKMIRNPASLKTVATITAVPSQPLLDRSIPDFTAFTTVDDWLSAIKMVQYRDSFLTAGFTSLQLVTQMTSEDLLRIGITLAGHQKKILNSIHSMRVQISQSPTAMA

SIK1 (human) = SIK1 (human) (UniProt P57059)
FRK (human) = FRK (human) (UniProt P42685)
ACVRL1 (human) = ACVRL1 (human) (UniProt P37023)
DDR2 (human) = DDR2 (human) (UniProt Q16832)
AURKC (human) = AURKC (human) (UniProt Q9UQB9)
SYK (human) = SYK (human) (UniProt P43405)

FLT3 (human), P36888 [ITD], sequence (P36888 whole entry, looked up, change not shown): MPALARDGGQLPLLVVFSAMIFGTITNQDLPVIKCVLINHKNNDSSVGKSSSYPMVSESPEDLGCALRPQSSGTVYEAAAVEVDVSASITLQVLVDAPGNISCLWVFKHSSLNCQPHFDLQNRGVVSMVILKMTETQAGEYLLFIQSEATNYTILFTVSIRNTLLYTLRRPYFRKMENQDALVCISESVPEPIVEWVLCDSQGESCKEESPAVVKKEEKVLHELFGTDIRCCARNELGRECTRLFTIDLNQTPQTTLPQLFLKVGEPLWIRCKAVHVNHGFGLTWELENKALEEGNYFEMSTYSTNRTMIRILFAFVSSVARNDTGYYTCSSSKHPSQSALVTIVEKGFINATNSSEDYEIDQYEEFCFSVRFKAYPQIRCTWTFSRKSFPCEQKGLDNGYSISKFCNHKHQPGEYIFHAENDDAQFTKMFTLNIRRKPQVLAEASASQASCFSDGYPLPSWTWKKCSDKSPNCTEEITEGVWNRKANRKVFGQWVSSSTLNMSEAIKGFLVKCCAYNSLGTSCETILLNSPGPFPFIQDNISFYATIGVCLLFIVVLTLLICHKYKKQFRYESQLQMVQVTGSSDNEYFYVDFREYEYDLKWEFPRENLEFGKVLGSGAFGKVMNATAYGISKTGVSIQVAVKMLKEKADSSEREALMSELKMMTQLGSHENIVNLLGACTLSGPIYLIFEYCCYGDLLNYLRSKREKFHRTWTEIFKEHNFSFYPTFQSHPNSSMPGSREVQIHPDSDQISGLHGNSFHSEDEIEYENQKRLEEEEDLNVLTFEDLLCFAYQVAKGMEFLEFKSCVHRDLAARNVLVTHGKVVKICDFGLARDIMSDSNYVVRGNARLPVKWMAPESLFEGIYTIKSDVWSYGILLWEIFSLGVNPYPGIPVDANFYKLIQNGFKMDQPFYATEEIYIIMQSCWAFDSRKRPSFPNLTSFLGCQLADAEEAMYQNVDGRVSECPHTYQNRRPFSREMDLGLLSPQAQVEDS
STK32C (human), sequence (Q86UX6 whole entry, looked up): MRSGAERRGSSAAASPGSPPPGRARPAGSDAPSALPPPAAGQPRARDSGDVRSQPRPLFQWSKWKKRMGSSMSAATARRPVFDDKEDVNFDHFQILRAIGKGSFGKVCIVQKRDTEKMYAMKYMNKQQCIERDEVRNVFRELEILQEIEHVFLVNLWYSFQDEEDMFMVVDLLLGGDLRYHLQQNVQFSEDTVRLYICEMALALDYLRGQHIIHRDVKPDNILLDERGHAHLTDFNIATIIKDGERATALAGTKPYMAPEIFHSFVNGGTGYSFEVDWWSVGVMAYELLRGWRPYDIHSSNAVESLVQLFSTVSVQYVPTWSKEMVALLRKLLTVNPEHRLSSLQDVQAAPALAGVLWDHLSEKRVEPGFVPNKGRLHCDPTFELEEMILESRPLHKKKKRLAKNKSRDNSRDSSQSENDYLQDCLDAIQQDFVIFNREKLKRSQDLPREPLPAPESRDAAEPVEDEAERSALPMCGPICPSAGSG
NEK2 (human), sequence (P51955 whole entry, looked up): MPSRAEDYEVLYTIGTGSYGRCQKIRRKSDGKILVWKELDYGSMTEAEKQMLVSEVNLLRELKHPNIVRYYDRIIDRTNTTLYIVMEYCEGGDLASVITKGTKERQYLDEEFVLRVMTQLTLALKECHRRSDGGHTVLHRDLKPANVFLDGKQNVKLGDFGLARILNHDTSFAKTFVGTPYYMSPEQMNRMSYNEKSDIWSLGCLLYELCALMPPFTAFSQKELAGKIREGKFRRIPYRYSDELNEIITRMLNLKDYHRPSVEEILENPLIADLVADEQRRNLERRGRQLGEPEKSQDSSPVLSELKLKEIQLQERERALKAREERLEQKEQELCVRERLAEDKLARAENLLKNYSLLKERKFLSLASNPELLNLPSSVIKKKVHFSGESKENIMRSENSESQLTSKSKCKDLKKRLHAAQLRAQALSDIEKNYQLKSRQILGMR

Compound: CC[C@@H]1C(=O)N(C)c2cnc(Nc3ccc(C(=O)NC4CCN(C)CC4)cc3OC)nc2N1C1CCCC1
- kinase still bound, per cent of control (MAP4K1 (human)): 100%
- kinase still bound, per cent of control (NEK2 (human)): 17%
- kinase still bound, per cent of control (PAK4 (human)): 100%
- kinase still bound, per cent of control (CDK18 (human)): 100%
- kinase still bound, per cent of control (RAF1 (human)): 100%
- kinase still bound, per cent of control (STK11 (human)): 100%
- kinase still bound, per cent of control (STK32C (human)): 100%
- kinase still bound, per cent of control [1]: 100%
- kinase still bound, per cent of control (FYN (human)): 100%
- kinase still bound, per cent of control (DYRK1B (human)): 100%
- kinase still bound, per cent of control (AAK1 (human)): 100%
- kinase still bound, per cent of control (TTK (human)): 6.3%
- kinase still bound, per cent of control (MKNK1 (human)): 100%
- kinase still bound, per cent of control (MAPK14 (human)): 100%
- kinase still bound, per cent of control (PIM2 (human)): 100%
- kinase still bound, per cent of control (WEE1 (human)): 100%
- kinase still bound, per cent of control (RPS6KA5 KD1 (human)): 100%
- kinase still bound, per cent of control (NTRK2 (human)): 100%
- kinase still bound, per cent of control (IKBKB (human)): 100%
- kinase still bound, per cent of control (MAPK3 (human)): 100%
- kinase still bound, per cent of control (MAP2K4 (human)): 100%
- kinase still bound, per cent of control (CDK8 (human)): 100%
- kinase still bound, per cent of control (CDC42BPA (human)): 100%
- kinase still bound, per cent of control (CAMK2D (human)): 100%
- kinase still bound, per cent of control (RPS6KA4 KD2 (human)): 0%
- kinase still bound, per cent of control (STK36 (human)): 100%
- kinase still bound, per cent of control (MAPK13 (human)): 100%
- kinase still bound, per cent of control (MARK4 (human)): 100%
- kinase still bound, per cent of control (MARK1 (human)): 100%
- kinase still bound, per cent of control (CAMK2A (human)): 26%
- kinase still bound, per cent of control (MAP4K3 (human)): 100%
- kinase still bound, per cent of control (TLK1 (human)): 100%
- kinase still bound, per cent of control (GSK3B (human)): 100%
- kinase still bound, per cent of control (EPHB1 (human)): 100%
- kinase still bound, per cent of control (SIK1 (human)): 100%
- kinase still bound, per cent of control (FRK (human)): 100%
- kinase still bound, per cent of control (ACVRL1 (human)): 100%
- kinase still bound, per cent of control (DDR2 (human)): 100%
- kinase still bound, per cent of control (AURKC (human)): 100%

Compound: CCOc1cc2ncc(C#N)c(Nc3ccc(OCc4ccccn4)c(Cl)c3)c2cc1NC(=O)/C=C/CN(C)C
- kinase still bound, per cent of control (MAP4K1 (human)): 45%
- kinase still bound, per cent of control (NEK2 (human)): 12%
- kinase still bound, per cent of control (PAK4 (human)): 93%
- kinase still bound, per cent of control (CDK18 (human)): 96%
- kinase still bound, per cent of control (RAF1 (human)): 100%
- kinase still bound, per cent of control (STK11 (human)): 94%
- kinase still bound, per cent of control (STK32C (human)): 100%
- kinase still bound, per cent of control [1]: 86%
- kinase still bound, per cent of control (FYN (human)): 84%
- kinase still bound, per cent of control (DYRK1B (human)): 99%
- kinase still bound, per cent of control (AAK1 (human)): 68%
- kinase still bound, per cent of control (TTK (human)): 100%
- kinase still bound, per cent of control (MKNK1 (human)): 29%
- kinase still bound, per cent of control (MAPK14 (human)): 91%
- kinase still bound, per cent of control (PIM2 (human)): 100%
- kinase still bound, per cent of control (WEE1 (human)): 57%
- kinase still bound, per cent of control (SYK (human)): 65%
- kinase still bound, per cent of control (RPS6KA5 KD1 (human)): 100%
- kinase still bound, per cent of control (NTRK2 (human)): 95%
- kinase still bound, per cent of control (IKBKB (human)): 100%
- kinase still bound, per cent of control (MAPK3 (human)): 100%
- kinase still bound, per cent of control (MAP2K4 (human)): 72%
- kinase still bound, per cent of control (CDK8 (human)): 100%
- kinase still bound, per cent of control (CDC42BPA (human)): 91%
- kinase still bound, per cent of control (CAMK2D (human)): 100%
- kinase still bound, per cent of control (RPS6KA4 KD2 (human)): 94%
- kinase still bound, per cent of control (STK36 (human)): 69%
- kinase still bound, per cent of control (MAPK13 (human)): 99%
- kinase still bound, per cent of control (MARK4 (human)): 87%
- kinase still bound, per cent of control (MARK1 (human)): 94%
- kinase still bound, per cent of control (CAMK2A (human)): 90%
- kinase still bound, per cent of control (MAP4K3 (human)): 2.1%
- kinase still bound, per cent of control (TLK1 (human)): 86%
- kinase still bound, per cent of control (EPHB1 (human)): 98%
- kinase still bound, per cent of control (SIK1 (human)): 31%
- kinase still bound, per cent of control (FRK (human)): 100%
- kinase still bound, per cent of control (ACVRL1 (human)): 100%
- kinase still bound, per cent of control (DDR2 (human)): 100%
- kinase still bound, per cent of control (AURKC (human)): 95%

Compound: Cc1ccc2nc(NCCN)c3ncc(C)n3c2c1
- kinase still bound, per cent of control (MAP4K1 (human)): 81%
- kinase still bound, per cent of control (NEK2 (human)): 100%
- kinase still bound, per cent of control (PAK4 (human)): 100%
- kinase still bound, per cent of control (CDK18 (human)): 100%
- kinase still bound, per cent of control (RAF1 (human)): 100%
- kinase still bound, per cent of control (STK32C (human)): 94%
- kinase still bound, per cent of control (FYN (human)): 100%
- kinase still bound, per cent of control (DYRK1B (human)): 85%
- kinase still bound, per cent of control (AAK1 (human)): 78%
- kinase still bound, per cent of control (TTK (human)): 100%
- kinase still bound, per cent of control (MKNK1 (human)): 100%
- kinase still bound, per cent of control (MAPK14 (human)): 98%
- kinase still bound, per cent of control (PIM2 (human)): 100%
- kinase still bound, per cent of control (WEE1 (human)): 100%
- kinase still bound, per cent of control (SYK (human)): 100%
- kinase still bound, per cent of control (RPS6KA5 KD1 (human)): 100%
- kinase still bound, per cent of control (NTRK2 (human)): 89%
- kinase still bound, per cent of control (IKBKB (human)): 0.55%
- kinase still bound, per cent of control (MAPK3 (human)): 97%
- kinase still bound, per cent of control (MAP2K4 (human)): 100%
- kinase still bound, per cent of control (CDK8 (human)): 100%
- kinase still bound, per cent of control (CDC42BPA (human)): 85%
- kinase still bound, per cent of control (CAMK2D (human)): 100%
- kinase still bound, per cent of control (RPS6KA4 KD2 (human)): 15%
- kinase still bound, per cent of control (MAPK13 (human)): 100%
- kinase still bound, per cent of control (MARK4 (human)): 100%
- kinase still bound, per cent of control (MARK1 (human)): 100%
- kinase still bound, per cent of control (CAMK2A (human)): 78%
- kinase still bound, per cent of control (MAP4K3 (human)): 80%
- kinase still bound, per cent of control (TLK1 (human)): 82%
- kinase still bound, per cent of control (GSK3B (human)): 68%
- kinase still bound, per cent of control (EPHB1 (human)): 100%
- kinase still bound, per cent of control (SIK1 (human)): 100%
- kinase still bound, per cent of control (FRK (human)): 100%
- kinase still bound, per cent of control (ACVRL1 (human)): 93%
- kinase still bound, per cent of control (DDR2 (human)): 100%
- kinase still bound, per cent of control (AURKC (human)): 100%

Compound: O=C(O)c1ccc(Nc2ncc3c(n2)-c2ccc(Cl)cc2C(c2c(F)cccc2F)=NC3)cc1
- kinase still bound, per cent of control (MAP4K1 (human)): 71%
- kinase still bound, per cent of control (NEK2 (human)): 73%
- kinase still bound, per cent of control (PAK4 (human)): 90%
- kinase still bound, per cent of control (CDK18 (human)): 100%
- kinase still bound, per cent of control (STK11 (human)): 92%
- kinase still bound, per cent of control (STK32C (human)): 50%
- kinase still bound, per cent of control [1]: 87%
- kinase still bound, per cent of control (FYN (human)): 17%
- kinase still bound, per cent of control (DYRK1B (human)): 91%
- kinase still bound, per cent of control (AAK1 (human)): 90%
- kinase still bound, per cent of control (TTK (human)): 63%
- kinase still bound, per cent of control (MKNK1 (human)): 100%
- kinase still bound, per cent of control (MAPK14 (human)): 93%
- kinase still bound, per cent of control (PIM2 (human)): 36%
- kinase still bound, per cent of control (WEE1 (human)): 100%
- kinase still bound, per cent of control (SYK (human)): 78%
- kinase still bound, per cent of control (RPS6KA5 KD1 (human)): 99%
- kinase still bound, per cent of control (NTRK2 (human)): 30%
- kinase still bound, per cent of control (IKBKB (human)): 100%
- kinase still bound, per cent of control (MAP2K4 (human)): 100%
- kinase still bound, per cent of control (CDK8 (human)): 100%
- kinase still bound, per cent of control (CDC42BPA (human)): 84%
- kinase still bound, per cent of control (CAMK2D (human)): 95%
- kinase still bound, per cent of control (RPS6KA4 KD2 (human)): 100%
- kinase still bound, per cent of control (STK36 (human)): 100%
- kinase still bound, per cent of control (MAPK13 (human)): 100%
- kinase still bound, per cent of control (MARK4 (human)): 100%
- kinase still bound, per cent of control (MARK1 (human)): 100%
- kinase still bound, per cent of control (CAMK2A (human)): 69%
- kinase still bound, per cent of control (MAP4K3 (human)): 97%
- kinase still bound, per cent of control (TLK1 (human)): 77%
- kinase still bound, per cent of control (EPHB1 (human)): 2.2%
- kinase still bound, per cent of control (SIK1 (human)): 5.7%
- kinase still bound, per cent of control (FRK (human)): 73%
- kinase still bound, per cent of control (ACVRL1 (human)): 64%
- kinase still bound, per cent of control (DDR2 (human)): 3.6%
- kinase still bound, per cent of control (AURKC (human)): 20%
